Reference: patent US20250228765A1, “TREATING KNEE JOINT PAIN BY INJECTING RESIN[…] ULTRA LOW DOSES” (Gruenenthal GmbH, priority 2024, published 2025)

Assays:
[1] = Comparative study in rats: knee tissue concentrations after intraarticular dosing; type: in vivo; conditions: male, rat, knee tissues, across the three formulations
Procedure: (§1) Animals: 63 male rats (21 rats per formulation; plus an additional 3 animals as a replacement). Body weight: average 263 g (236-295 g). Dose (IA): ˜36.6 ng/kg=>9.6 ng/knee as an injection of 30 μL/knee of three various formulations with concentration 320 ng/mL. PK sampling: 7 timepoints: 10 min (animals not fully conscious between dosing and sampling), 20 min, 30 min, 1 h, 1.5 h, 2 h and 4 h (one sample per rat; 3 rats per timepoint) in plasma and synovial fluid. Tissue samples: at same time points as PK samples following tissue samples: meniscus, patella, femoral head and tibial plateau.

[2] = Human study: safety and injection site pain after intraarticular injection; type: in vivo; conditions: for subjects with severe adverse events: none related to investigational medicinal product; for incidence of treatment emergent adverse events: placebo 75.0%
Procedure: (§2) The primary objective of this study was to compare the analgesic effects of single intraarticular injections of Resiniferatoxin (100 or 400 ng) compared to placebo, at 3 and 6 months postinjection, in participants with chronic osteoarthritic knee joint pain. Secondary objectives were to evaluate the analgesic effects of Resiniferatoxin versus placebo in terms of a responder analysis (percentage of subjects achieving ≥50% or ≥70% reduction in visual analog scale pain score) and changes in Western Ontario and McMaster Universities Arthritis Index (WOMAC) total and subscale scores (pain, physical function and stiffness). Safety and injection site pain were also evaluated.
(§3) The study was conducted as a randomized, double-blind, placebo-controlled, single-dose trial of Resiniferatoxin. Eligible patients were aged 40 to 80 years with radiographic knee osteoarthritis (Kellgren-Lawrence Grade 2-4 in the last 3 years) and a baseline visual analog scale (0-100 mm) pain score ≥40 mm on motion in the target knee, with or without pain medication. 67 subjects were randomized to treatment with either Resiniferatoxin 100 ng (n=24) or 400 ng (n=23), or placebo (n=20), administered intraarticularly into the index knee. Intraarticular Ropivacaine (5 ml, 0.5%) was administered 15 mins before investigational medicinal product. Visual analog scale scores were used to evaluate pain on motion as the average of the last 2 days in a target knee between baseline and at 3 and 6 months post injection. Injection site pain was rated (visual analog scale) from baseline (−0.5 h) up to 3 h post intraarticular injections.

[3] = tested on: moderate to severe pain due to osteoarthritis of the knee; conditions: cited from earlier work
[4] = Comparative study in rats: synovial fluid pharmacokinetics after intraarticular dosing; type: in vivo; conditions: male, rat, 9.6 ng, across the three formulations
Procedure: as §1
Sampling of synovial fluid: A 0.5 ml 28G Insulin syringes (fixed needle, no hub) were filled with 100 μl of the saline/EDTA solution. The skin was removed from the joint and then the needle was inserted through the patellar tendon into the joint space. The solution was then injected into the joint space, the knee was flexed a couple/few times (all with the needle still in the joint) and then was pulled back on the plunger to collected the mix of saline/EDTA and synovial fluid. The lavage fluid was then put into a microcentrifuge tube, it was spun to pellet any cells/debris and then the supernatant was collected.

[5] = tested on: naturally-occurring canine osteoarthritis; conditions: single intraarticular injection of 10 μg; 7 dogs with osteoarthritis; cited from earlier work
[6] = tested on: chronic osteoarthritic knee joint pain; experiment: Randomized, double-blind, placebo-controlled single-dose human study: analgesic effect of intraarticular injection; type: in vivo; conditions: for mean (SD) absolute reduction of visual analog scale score, pain on motion: 6 months, VAS 0-100 mm, placebo 28.26
Procedure: In a human study, two pharmaceutical dosage forms according to the invention were used comprising Resiniferatoxin (100 or 400 ng) in an aqueous ethanolic solution additionally containing polysorbate 80 (Tween® 80) as surfactant, trometamol as buffer and a combination of NaCl, KCl, and CaCl2) as inorganic salts.
as §2, §3

[7] = single intraarticular doses 100 ng or 400 ng

C=C(C)[C@]12C[C@@H](C)[C@@]34O[C@](Cc5ccccc5)(O[C@@H]1[C@@H]3C=C(COC(=O)Cc1ccc(O)c(OC)c1)C[C@]1(O)C(=O)C(C)=C[C@@H]41)O2 [Resiniferatoxin, 4-hydroxy-3-methoxy-benzeneacetic acid, [(2S,3aR,3bS,6aR,9aR,9bR, 10R,11aR)-3a, 3b, 6,6a, 9a,10,11,11a-octahydro-6a-hydroxy-8,10-dimethyl-11a-(1-methylethenyl)-7-oxo-2-(phenylmethyl)-7H-2,9b-epoxyazuleno[5,4-e]-1,3-benzodioxol-5-yl]methyl ester]
half-life ([1]; 9.6 ng, read-out: half-life in the tissues (converted)): ~1.5 h | half-life ([1]; other: intraarticular, 9.6 ng/knee, read-out: half-life in the tissues (converted)): ~1.5 h | half-life ([1]; other: intraarticular, 9.6 ng/knee, read-out: half-life in the tissues (range)): 0.895 to 3.21 h | subjects with severe adverse events ([2]; 100 ng group (n=24)): 2 subjects | incidence of treatment emergent adverse events ([2]; 100 ng group): 62.5% | subjects with severe adverse events ([2]; 400 ng group (n=23)): 3 subjects | incidence of treatment emergent adverse events ([2]; 400 ng group): 78.3% | injection site pain (procedural pain) compared to placebo ([2]; intraarticular, 100 or 400 ng, VAS up to 3 h post injection): generally higher | time of peak injection site pain post-injection ([2]; moderate-severe intensity in some subjects): around 0.5 h | injection site pain return to baseline ([2]; post-injection): ≤ 3 h | safety profile and tolerability [2, 7]: good safety profile | sustained pain relief (anecdotal long-term follow up) ([3]; one-time intraarticular dose 5-30 μg): > 365 days | safety as onetime intraarticular injection ([3]; up to the planned highest dose of 30 μg): demonstrated safety | half-life ([4]; read-out: half-life in SF (converted)): ~1.5 h | half-life ([4]; read-out: half-life in SF (range)): 1.07 to 1.85 h | analgesic effect [5]: significant and prolonged analgesic effect | reduction in WOMAC total and subscale scores (pain, physical function and stiffness) versus placebo ([6]; 100 ng and 400 ng groups, at both 3 and 6 months): greater reduction | mean (SD) absolute reduction of visual analog scale score, pain on motion ([6]; 100 ng single intraarticular injection): 33.52 (22.89) | mean (SD) absolute reduction of visual analog scale score, pain on motion ([6]; 400 ng single intraarticular injection): 41.48 (32.57) | analgesia evident during the follow-up period [6, 7]: at least 3 months | analgesic onset after administration [6, 7]: within one week
